From patent publication US20260041620A1, “NOVEL AMINO ACID BASED SALTS, COMPOSITIONS AND METHODS FOR TREATING SKIN AND IMPROVING SKIN REJUVENATION AND LONGEVITY” (Sytheon Ltd, priority 2023, published 2026) come the findings set out here.

Test [1] addresses HDAC 3 (Homo sapiens, UniProt O15379).
Method: (§1) Test materials were stored at room temperature and stock solutions were prepared at 20 mg/ml in DMSO. Further dilutions were made in sterile distilled water immediately before being added to the reaction mixture containing a substrate, and the reaction was triggered by the addition of purified HDAC enzymes, Double distilled water was the negative control and trichostatin (1.5 ug/ml) was used as a positive control for validation of each study. The test procedure was as directed in the assay kits. The products of the reactions were measured by fluorometry at ex/em 350/450 nm using multi-well plate fluorometer Cytofluor 4000 (Applied Biosystem, Foster City, CA) or using SpectraMax i3× Multi-Mode Detection Platform from Molecular Devices (Sunnyvale, CA).
(§2) Statistical significance was assessed with a two-tail Student test. Deviations of ≤20% as compared to water control with p values below 0.05 were considered statistically significant.
Test [2] concerns the target T1, HDAC10 (Homo sapiens, UniProt Q969S8).
T1 sequence (Q969S8 1-669): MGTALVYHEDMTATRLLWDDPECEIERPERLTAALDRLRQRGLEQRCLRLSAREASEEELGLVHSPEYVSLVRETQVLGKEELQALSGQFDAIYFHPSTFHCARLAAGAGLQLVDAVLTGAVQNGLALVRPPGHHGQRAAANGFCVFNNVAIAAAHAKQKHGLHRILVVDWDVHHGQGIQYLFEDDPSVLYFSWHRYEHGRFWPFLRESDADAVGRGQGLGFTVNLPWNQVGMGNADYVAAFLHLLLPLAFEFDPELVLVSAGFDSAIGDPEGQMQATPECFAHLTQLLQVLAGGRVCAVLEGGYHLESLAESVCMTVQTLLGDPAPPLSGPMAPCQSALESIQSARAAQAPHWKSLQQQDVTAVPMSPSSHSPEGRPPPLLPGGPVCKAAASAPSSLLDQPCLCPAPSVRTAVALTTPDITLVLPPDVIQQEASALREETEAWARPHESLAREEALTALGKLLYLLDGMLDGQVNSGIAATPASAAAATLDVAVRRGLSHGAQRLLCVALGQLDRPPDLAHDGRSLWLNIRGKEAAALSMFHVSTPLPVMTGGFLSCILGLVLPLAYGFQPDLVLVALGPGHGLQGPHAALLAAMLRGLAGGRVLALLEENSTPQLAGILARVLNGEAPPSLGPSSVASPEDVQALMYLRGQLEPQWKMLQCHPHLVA
Method: as §1, §2

In test [3] the target is T2, HDAC7 (Homo sapiens, UniProt Q8WUI4).
T2 sequence (Q8WUI4 1-952): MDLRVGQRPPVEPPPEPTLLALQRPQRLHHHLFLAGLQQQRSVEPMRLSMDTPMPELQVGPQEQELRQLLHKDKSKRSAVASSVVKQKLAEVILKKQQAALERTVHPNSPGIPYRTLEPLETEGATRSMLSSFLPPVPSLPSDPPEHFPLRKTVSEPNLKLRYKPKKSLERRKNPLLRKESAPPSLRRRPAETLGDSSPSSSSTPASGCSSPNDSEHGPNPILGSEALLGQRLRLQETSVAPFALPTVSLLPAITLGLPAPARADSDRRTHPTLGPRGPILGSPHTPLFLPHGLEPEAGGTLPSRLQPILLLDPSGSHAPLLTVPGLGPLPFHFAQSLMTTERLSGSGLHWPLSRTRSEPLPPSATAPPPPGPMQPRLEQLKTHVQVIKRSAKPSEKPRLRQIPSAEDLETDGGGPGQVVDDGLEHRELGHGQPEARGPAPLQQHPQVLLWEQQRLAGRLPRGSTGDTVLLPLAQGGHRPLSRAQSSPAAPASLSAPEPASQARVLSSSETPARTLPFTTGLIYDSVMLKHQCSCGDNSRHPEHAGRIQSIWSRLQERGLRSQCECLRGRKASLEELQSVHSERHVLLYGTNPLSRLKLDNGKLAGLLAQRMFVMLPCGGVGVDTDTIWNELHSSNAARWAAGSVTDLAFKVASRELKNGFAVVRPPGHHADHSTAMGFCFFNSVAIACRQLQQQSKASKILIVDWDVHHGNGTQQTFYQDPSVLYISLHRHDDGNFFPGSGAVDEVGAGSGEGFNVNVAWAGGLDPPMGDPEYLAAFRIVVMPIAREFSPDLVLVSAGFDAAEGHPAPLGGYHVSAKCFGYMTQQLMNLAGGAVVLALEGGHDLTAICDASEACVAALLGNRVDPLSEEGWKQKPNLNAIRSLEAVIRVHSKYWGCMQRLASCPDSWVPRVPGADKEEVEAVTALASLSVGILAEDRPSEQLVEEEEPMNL
Method: as §1, §2

Test [4] concerns the target T3, FABP-3 (Homo sapiens, UniProt P05413).
T3 construct: purchased Neovateinbio PT-452
Briefly: FABP-3 ELISA inhibitory assay. It counts as biochemical. A general note: In an ELISA, binding on a coated surface is turned into a signal by an enzyme label.

Test [5] has as its target T4, MAGL (Homo sapiens, UniProt Q99685).
T4 construct: purchased Cayman 10007812
T4 sequence (Q99685 1-303): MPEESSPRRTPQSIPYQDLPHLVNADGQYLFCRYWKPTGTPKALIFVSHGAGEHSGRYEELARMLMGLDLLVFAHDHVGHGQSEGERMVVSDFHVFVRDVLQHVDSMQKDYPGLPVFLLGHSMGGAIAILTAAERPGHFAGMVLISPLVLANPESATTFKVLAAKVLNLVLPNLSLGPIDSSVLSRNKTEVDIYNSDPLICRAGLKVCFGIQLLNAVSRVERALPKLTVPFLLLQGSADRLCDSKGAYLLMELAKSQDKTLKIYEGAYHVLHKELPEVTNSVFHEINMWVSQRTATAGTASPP
In words: MAGL inhibitory assay. It counts as biochemical. The method, then:
Each study was performed in duplicate and the results averaged.
The final concentration in each well was 10 μl of sample, 5.6 μM MAGL (Cayman Catalog #10007812) and 23.6 μM 2-Arachidonoyl Glycerol (Cayman catalog #62160).

Test [6] concerns the target T5, FAAH (Homo sapiens, UniProt O00519).
T5 sequence (O00519 1-579): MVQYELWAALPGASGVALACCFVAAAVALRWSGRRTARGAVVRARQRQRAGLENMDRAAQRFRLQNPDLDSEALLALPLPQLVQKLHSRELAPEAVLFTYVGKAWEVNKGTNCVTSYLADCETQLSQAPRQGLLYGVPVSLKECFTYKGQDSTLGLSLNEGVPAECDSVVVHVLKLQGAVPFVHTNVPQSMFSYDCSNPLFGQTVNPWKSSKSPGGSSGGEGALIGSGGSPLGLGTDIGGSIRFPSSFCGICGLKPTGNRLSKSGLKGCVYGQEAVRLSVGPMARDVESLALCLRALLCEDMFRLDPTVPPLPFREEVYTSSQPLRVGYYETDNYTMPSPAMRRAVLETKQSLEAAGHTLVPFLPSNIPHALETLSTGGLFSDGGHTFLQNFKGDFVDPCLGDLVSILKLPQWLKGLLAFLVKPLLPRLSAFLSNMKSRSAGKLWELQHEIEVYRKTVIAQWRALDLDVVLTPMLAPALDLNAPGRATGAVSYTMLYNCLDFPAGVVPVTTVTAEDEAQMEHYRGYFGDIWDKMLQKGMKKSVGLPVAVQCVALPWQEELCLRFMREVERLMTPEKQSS
In words: FAAH fluorescence-based inhibitory assay. It counts as biochemical.

The target of test [7] is T6, FABP-5 (Homo sapiens, UniProt Q01469).
T6 construct: purchased Raybiotech 268-10276-1
In words: FABP-5 ELISA inhibitory assay. It counts as biochemical.

Test [8] deals with HDAC1 (Homo sapiens, UniProt Q13547). In words: HDAC 1 fluorogenic assay kit. Conditions: 200 ug/ml.
Method: as §1, §2
Test [9] addresses T7, HDAC 11 (Homo sapiens, UniProt Q96DB2).
T7 construct: purchased BPS Biosciences 50687
T7 sequence (Q96DB2 1-347): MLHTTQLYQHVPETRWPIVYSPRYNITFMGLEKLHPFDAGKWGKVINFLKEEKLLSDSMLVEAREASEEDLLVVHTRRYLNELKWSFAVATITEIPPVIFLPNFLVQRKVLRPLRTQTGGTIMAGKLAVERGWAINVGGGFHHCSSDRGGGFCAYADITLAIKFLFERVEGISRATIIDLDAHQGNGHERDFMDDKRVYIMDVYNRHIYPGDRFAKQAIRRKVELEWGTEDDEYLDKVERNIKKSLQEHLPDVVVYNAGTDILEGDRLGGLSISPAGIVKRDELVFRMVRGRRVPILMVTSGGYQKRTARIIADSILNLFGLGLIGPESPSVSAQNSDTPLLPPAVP
Briefly: HDAC 11 fluorogenic assay kit. It counts as biochemical.
Method: as §1, §2

The target of test [10] is HDAC 4 (Homo sapiens, UniProt P56524). Briefly: HDAC 4 fluorogenic assay kit.
Method: as §1, §2

Like-named read-outs stand apart in the source and are kept apart here.

HDAC 4, sequence (P56524 whole entry): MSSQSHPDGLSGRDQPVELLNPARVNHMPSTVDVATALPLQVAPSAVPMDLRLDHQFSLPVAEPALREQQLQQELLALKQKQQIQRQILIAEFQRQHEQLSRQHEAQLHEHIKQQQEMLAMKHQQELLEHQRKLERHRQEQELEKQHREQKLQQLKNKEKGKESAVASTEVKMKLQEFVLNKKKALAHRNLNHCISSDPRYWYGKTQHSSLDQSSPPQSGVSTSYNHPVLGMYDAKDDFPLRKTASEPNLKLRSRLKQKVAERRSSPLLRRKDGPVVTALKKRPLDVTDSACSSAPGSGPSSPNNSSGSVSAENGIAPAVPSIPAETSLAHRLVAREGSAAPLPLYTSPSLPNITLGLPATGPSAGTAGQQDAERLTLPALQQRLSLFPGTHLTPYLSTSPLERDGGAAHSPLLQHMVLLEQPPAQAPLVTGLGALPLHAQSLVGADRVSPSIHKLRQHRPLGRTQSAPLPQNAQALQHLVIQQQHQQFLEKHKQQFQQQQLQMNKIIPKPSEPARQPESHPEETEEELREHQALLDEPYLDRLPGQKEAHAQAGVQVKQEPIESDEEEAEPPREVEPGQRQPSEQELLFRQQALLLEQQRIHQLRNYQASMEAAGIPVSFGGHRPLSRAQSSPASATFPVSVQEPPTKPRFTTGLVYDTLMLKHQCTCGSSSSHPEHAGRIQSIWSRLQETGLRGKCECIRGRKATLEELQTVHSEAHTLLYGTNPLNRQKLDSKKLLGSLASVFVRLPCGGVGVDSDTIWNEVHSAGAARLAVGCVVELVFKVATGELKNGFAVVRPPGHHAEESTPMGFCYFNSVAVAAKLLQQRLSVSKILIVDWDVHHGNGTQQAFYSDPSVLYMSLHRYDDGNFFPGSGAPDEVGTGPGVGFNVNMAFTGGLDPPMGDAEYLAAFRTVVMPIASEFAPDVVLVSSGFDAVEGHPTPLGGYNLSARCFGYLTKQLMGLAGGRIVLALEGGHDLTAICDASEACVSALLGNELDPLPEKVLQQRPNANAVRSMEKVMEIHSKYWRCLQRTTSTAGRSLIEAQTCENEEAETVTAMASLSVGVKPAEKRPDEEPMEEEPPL
T3 sequence (P05413 whole entry): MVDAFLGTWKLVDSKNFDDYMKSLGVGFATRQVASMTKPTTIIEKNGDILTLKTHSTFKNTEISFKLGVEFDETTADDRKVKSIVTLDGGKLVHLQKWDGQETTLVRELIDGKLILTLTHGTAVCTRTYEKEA
HDAC 3, sequence (O15379 whole entry): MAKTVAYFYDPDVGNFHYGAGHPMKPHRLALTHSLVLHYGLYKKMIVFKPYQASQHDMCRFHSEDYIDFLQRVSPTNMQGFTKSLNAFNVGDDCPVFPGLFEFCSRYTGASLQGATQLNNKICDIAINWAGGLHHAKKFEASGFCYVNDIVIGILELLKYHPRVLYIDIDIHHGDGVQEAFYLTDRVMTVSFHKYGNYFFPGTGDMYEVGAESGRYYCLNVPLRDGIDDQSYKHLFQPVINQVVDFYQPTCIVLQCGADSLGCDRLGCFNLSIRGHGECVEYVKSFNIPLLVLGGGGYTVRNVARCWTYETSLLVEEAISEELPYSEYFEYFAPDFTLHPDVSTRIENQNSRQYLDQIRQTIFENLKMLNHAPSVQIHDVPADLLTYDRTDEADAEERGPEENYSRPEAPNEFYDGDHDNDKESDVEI
HDAC 3, sequence (Q9Y618 395-489 partner limits assumed): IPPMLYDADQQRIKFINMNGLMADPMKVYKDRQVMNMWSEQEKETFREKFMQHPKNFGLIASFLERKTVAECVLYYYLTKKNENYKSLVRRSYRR
T6 sequence (Q01469 whole entry): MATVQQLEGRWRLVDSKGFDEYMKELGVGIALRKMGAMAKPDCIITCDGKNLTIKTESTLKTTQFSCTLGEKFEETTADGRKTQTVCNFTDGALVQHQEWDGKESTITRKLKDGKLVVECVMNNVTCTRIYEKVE
HDAC1, sequence (Q13547 whole entry): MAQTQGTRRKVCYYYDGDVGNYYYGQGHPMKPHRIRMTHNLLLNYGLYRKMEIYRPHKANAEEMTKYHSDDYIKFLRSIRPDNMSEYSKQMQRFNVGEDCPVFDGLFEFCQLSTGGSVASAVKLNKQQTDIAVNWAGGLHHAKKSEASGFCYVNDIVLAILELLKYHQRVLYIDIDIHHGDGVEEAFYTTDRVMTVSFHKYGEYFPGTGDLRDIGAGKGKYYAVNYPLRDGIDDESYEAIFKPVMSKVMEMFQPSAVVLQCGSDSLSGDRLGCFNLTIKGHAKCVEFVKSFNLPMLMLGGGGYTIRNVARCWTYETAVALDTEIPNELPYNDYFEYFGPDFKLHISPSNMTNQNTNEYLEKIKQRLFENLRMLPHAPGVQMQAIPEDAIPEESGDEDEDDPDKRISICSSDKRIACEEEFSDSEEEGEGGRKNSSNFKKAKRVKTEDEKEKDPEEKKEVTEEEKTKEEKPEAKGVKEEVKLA

Turning to `CCCC(=O)NCCCC[C@H](NC(=O)CCC)C(=O)[O-].CCCC(=O)NCCCC[C@H](NC(=O)CCC)C(=O)[O-].[Mg+2]` [Mg di-(di-n-butyryl lysinate), magnesium di-(di-n-butyryl lysinate)], the “HDAC 3 activity, % of water-treated controls” value in test [1] (100 ug/ml) was determined as 114%; in [1] (200 ug/ml) it was 117%. Further, the “HDAC 10 activity, % of water-treated controls” value worked out at 98% in test [2] (100 ug/ml) and 102% in test [2] (200 ug/ml). Besides, the “HDAC 7 activity, % of water-treated controls” value in test [3] (100 ug/ml) and in test [3] (200 ug/ml) was 100% each time. The “FABP-3 IC50” value in [4] is 282.5 µg/mL. Moreover, the “MAGL IC50” value in test [5] is 101 µg/mL. Also, in test [6], the “FAAH IC50” value amounted to 368.5 µg/mL. Further, the “FABP-5 IC50” value in [7] amounted to 349.1 µg/mL. Moreover, in test [8], the “HDAC 1 activity, % of water-treated controls” value came out at 74%. Moreover, the “HDAC 11 activity, % of water-treated controls” value in test [9] (100 ug/ml) and in test [9] (200 ug/ml) was 91% in each case.

Turning to calcium dilysinate [Ca dilysinate], the “HDAC 4 activity, % of water-treated controls” value in [10] (25 ug/ml) came to 109%; in test [10] (50 ug/ml), 101%; in [10] (100 ug/ml) it was 107%. In test [4], the “FABP-3 IC50” value stood at 208.6 µg/mL. In test [5], the “MAGL IC50” value came to 856.0 µg/mL. Moreover, the “FAAH IC50” value in test [6] stood at 445.1 µg/mL. Also, the “FABP-5 IC50” value in [7] is 871.4 µg/mL.
